Tested on: Plasmodium berghei
Assay: Luciferase/luciferin-expressing antifolate-resistant parasites were used to infect a culture of HepG2 cells that were pre-incubated with compounds. Infected hepatocytes emit light due to the luciferase reaction. Assay results are presented as the percent inhibition of light emission compared to control. […]
Assay type: functional
Settings: sporozoite; for IC90: read-out: LUCIFERASE INFECTION ASSAY - IC90
[1] = read-out: LUCIFERASE INFECTION ASSAY - IC50

SMILES | IC90 | IC50 [1] | further results
CN1CCN(c2ccc(Cl)cc2NC(=O)Cn2c3ccccc3c(=O)c3ccccc32)CC1 | > 10 µM |  | IC50 (PBLUC_HILL_SLOPE 2.6, PBLUC_R_SQUARED 0.61, read-out: LUCIFERASE INFECTION ASSAY - IC50): 4.43 µM
O=S(=O)(Oc1ccc2oc3ccccc3c2c1)c1ccccc1F | > 10 µM | > 10 µM | 
Cc1cccc(C)c1NC(=O)NCCSCc1c(Cl)cccc1Cl | > 8.61 µM | > 8.61 µM | 
CC(C)Oc1cccc(-c2cn3c(-c4ccccc4Cl)cnc3cn2)c1 | > 9.07 µM | > 9.07 µM | 
Cc1ccc(Cn2nc(C)c(C(=O)OCC(=O)/C=C3\N(C)c4ccccc4C3(C)C)c2Cl)cc1 | > 10 µM | > 10 µM | 
COc1ccc(F)cc1-c1ccnc2n[nH]c(-c3ccc(Cl)cc3)c12 | > 10 µM |  | IC50 (HEPG2TOX_HILL_SLOPE 2.34, HEPG2TOX_R_SQUARED 0.976, PBLUC_HILL_SLOPE 1.09, PBLUC_R_SQUARED 0.396, read-out: LUCIFERASE INFECTION ASSAY - IC50): 1.84 µM
N#Cc1ccc(NC(=O)NNc2ccc(Cl)cc2Cl)cc1 | > 10 µM |  | IC50 (PBLUC_HILL_SLOPE 16.6, PBLUC_R_SQUARED 0.338, read-out: LUCIFERASE INFECTION ASSAY - IC50): 9.59 µM
CCN1C(c2ccc(C)cc2)=CS/C1=C(/C#N)c1nnc2n1CCCCC2 | > 10 µM | > 10 µM | 
O=[N+]([O-])c1ccc(S(=O)(=O)c2ccc(C(F)(F)F)cn2)nc1 | 6.39 µM |  | IC50 (FFLUC_HILL_SLOPE 150, FFLUC_R_SQUARED 0.542, HEPG2TOX_HILL_SLOPE 3, HEPG2TOX_R_SQUARED 0.956, PBLUC_HILL_SLOPE 6.23, PBLUC_R_SQUARED 0.341, read-out: LUCIFERASE INFECTION ASSAY - IC50): 4.49 µM
CN(CC(=O)Nc1ccc(F)c(F)c1F)c1cnccn1 | > 10 µM | > 10 µM | 
CC(C)N(c1ccccc1)c1ccc(NC(=O)Nc2ccccc2)cc1 | 3.58 µM |  | IC50 (PBLUC_HILL_SLOPE 27.4, PBLUC_R_SQUARED 0.0577, read-out: LUCIFERASE INFECTION ASSAY - IC50): 3.31 µM
Cc1ccc(NN2C(=O)C=C(c3ccc(Cl)cc3)C2=O)cc1 | > 10.6 µM | > 10.6 µM | 
CSCCC(NCc1cc(C)n(-c2ccnn2C(C)C)c1C)c1nc2ccccc2[nH]1 (centres undefined) | > 10 µM | > 10 µM | 
COc1ccc(C(=O)C2CCN(C(=O)c3cnc(C)cn3)CC2)cc1 | > 10 µM | > 10 µM | 
c1csc(-c2cnc3sc(NCc4ccncc4)nn23)c1 | > 10.5 µM | > 10.5 µM | 
COC(=O)c1sc(N)c(C(=O)OC)c1COC(=O)/C=C/c1ccc(OC(F)F)cc1 | > 10 µM |  | IC50 (FFLUC_HILL_SLOPE 15.7, FFLUC_R_SQUARED 0.211, read-out: LUCIFERASE INFECTION ASSAY - IC50): > 10 µM

SMILES | IC90 | IC50 [1] | further results
CC1=NN(c2ccccc2)C(=O)/C(=C\NC(=O)c2cccc([N+](=O)[O-])c2)N1 | 8.07 µM |  | IC50 (HEPG2TOX_HILL_SLOPE 1.78, HEPG2TOX_R_SQUARED 0.224, PBLUC_HILL_SLOPE 3.78, PBLUC_R_SQUARED 0.384, read-out: LUCIFERASE INFECTION ASSAY - IC50): 4.51 µM
CN(C)CCNc1nc(-c2ccco2)c2c(c1C#N)CCCC2 | > 10.6 µM |  | IC50 (HEPG2TOX_HILL_SLOPE 3.21, HEPG2TOX_R_SQUARED 0.873, PBLUC_HILL_SLOPE 1.18, PBLUC_R_SQUARED 0.659, read-out: LUCIFERASE INFECTION ASSAY - IC50): 3.31 µM
CC(C)N(Cc1ccccc1)C(=S)NC(=O)C1(C)CC1(Cl)Cl (centres undefined) | > 10 µM | > 10 µM | 
CCn1c2ccc(C(=O)N/N=C/c3cn(-c4ccccc4)nc3-c3ccc(OC(F)F)cc3)cc2c[n+]1C | > 10 µM |  | IC50 (PBLUC_HILL_SLOPE 9.98, PBLUC_R_SQUARED 0.817, read-out: LUCIFERASE INFECTION ASSAY - IC50): 8.1 µM
COc1ccc(-c2c[n+]3c4n2CCCCC4=C(c2ccccc2)C3)cc1 | > 10 µM |  | IC50 (PBLUC_HILL_SLOPE 3.06, PBLUC_R_SQUARED 0.525, read-out: LUCIFERASE INFECTION ASSAY - IC50): 6.77 µM
C=CCSc1nnc(NC(=O)C2Cc3ccccc3CN2S(=O)(=O)c2ccccc2F)s1 (centres undefined) | > 10 µM |  | IC50 (FFLUC_HILL_SLOPE 1.45, FFLUC_R_SQUARED 0.33, PBLUC_HILL_SLOPE 5.35, PBLUC_R_SQUARED 0.362, read-out: LUCIFERASE INFECTION ASSAY - IC50): 7.22 µM
CCc1c(C)sc(NC(=O)c2c(-c3ccccc3)noc2C)c1C(=O)OC | > 8.58 µM |  | IC50 (PBLUC_HILL_SLOPE 4.81, PBLUC_R_SQUARED 0.194, read-out: LUCIFERASE INFECTION ASSAY - IC50): 5.61 µM
COc1cc(C(=O)OC(C)C(=O)Nc2sccc2C(N)=O)ccc1C (centres undefined) | > 10 µM | > 10 µM | 
CN(C)S(=O)(=O)c1cccc(NC(=O)c2ccc3c(c2Cl)C(=O)c2ccccc2C3=O)c1 | > 10 µM | 8.82 µM | 
Cc1ccc(C(=O)c2ccccc2C(=O)OC(C)C(=O)N(Cc2ccccc2)Cc2ccccc2)cc1 (centres undefined) | 9.62 µM |  | IC50 (HEPG2TOX_HILL_SLOPE 7.35, HEPG2TOX_R_SQUARED 0.243, PBLUC_HILL_SLOPE 15.7, PBLUC_R_SQUARED 0.159, read-out: LUCIFERASE INFECTION ASSAY - IC50): 8.36 µM
CN(Cc1ccc(C(F)(F)F)cc1)C(=O)c1cc(Br)ccc1O | > 10 µM |  | IC50 (FFLUC_HILL_SLOPE 1.16, FFLUC_R_SQUARED 0.0567, read-out: LUCIFERASE INFECTION ASSAY - IC50): > 10 µM
CN(c1ccccc1)S(=O)(=O)c1cccc(NC(=O)Nc2ccccc2[N+](=O)[O-])c1 | > 10 µM | > 10 µM | 
O=C(Nc1ccc(Cl)cc1)n1ncc(Sc2ccc(Cl)cc2)c1-c1ccc(Cl)cc1 | > 6.95 µM | > 6.95 µM | 
CN(C)c1ccc(/C=C2\CCn3c2nc2scc(-c4ccccc4)c2c3=O)cc1[N+](=O)[O-] | > 10 µM | > 10 µM | 
COc1ccc(Cc2n[nH]c(Nc3cccc(Cl)c3)nc2=O)cc1 | 1.36 µM | 1.11 µM | 
CC(C)n1cc(C(=O)c2ccccc2O)cc1-c1nc2ccccc2o1 | > 10 µM | > 10 µM | 
